We go through four compounds from article PMC6874530, “Structural analysis identifies an escape route from the adverse lipogenic effects of liver X receptor ligands” (Communications Biology, 2019).

Data set [1] is described as follows: quantification of drug concentration in plasma of mice. As to conditions: oral gavage. The data set is classed as in vivo, mouse. As for the experimental part: Solid compounds were solubilized in PEG400/Ethanol/Solutol/Water solution (36.3/9.1/4.6/50%). Compounds were given daily by oral gavage, 5 ml kg^−1, at doses ranging from 0.1 to 100 μmol kg^−1 of body weight for 4 days. Animals were terminated 3 h after the last dose.
At termination, the whole-blood volume was drawn from isoflurane-anesthetized mice via an incision in the carotid artery into EDTA blood tubes (S-Monovette®, EDTA KE/1.3 mL, Sarstedt, Nümbrecht, Germany or BD Microtainers®, Benton, Dickinson and Company, Franklin Lakes, New Jersey, USA). Blood samples were placed on ice and centrifuged within an hour (15 min, 2500 × g, 4 °C or 5 min, 16000 × g, 4 °C). The plasma was then dispensed in separate tubes and kept at −80 °C for later analysis of compound concentration and TG levels. For the analysis of intestinal Abca1 transcript levels, a 3–5-mm long segment of the duodenum was excised and cleared from any gut contents. Tissues were instantly snap frozen in liquid nitrogen and stored at −80 °C.
About 25 µL of plasma was precipitated with 150 µL of cold acetonitrile containing 0.2% formic acid. After vortexing followed by 20 min of centrifugation at 3220 × g and 4 °C, the supernatant was diluted 1:1 with 0.2% formic acid (aqueous phase). […]

Another data set deals with T1, LXRβ LBD (Homo sapiens, UniProt P55055).
T1 sequence (P55055 215-460 limits assumed): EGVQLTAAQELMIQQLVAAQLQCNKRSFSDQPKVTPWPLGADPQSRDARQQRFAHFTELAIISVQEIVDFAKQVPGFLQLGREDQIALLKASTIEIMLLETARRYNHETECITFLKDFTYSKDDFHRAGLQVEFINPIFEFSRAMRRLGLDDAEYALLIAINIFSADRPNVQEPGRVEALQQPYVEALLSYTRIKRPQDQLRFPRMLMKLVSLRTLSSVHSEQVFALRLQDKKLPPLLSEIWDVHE
To be noted: LXRβ over LXRα binding.

A further data set concerns plasma triglycerides. The arrangement: method as in van der Hoorn et al. 2011. As to conditions: AZ876 high dose 20 µmol·kg−1·day−1, GW3965 at a similar dose; ref van der Hoorn et al. 2011; cited from earlier work.
The target of the next data set is T2, LXRα/NCOR1 (Homo sapiens, UniProt Q13133).
T2 construct: Human his-tagged LXRα LBD (200-447); His tag; made in house; host or cells: Escherichia coli BL21(DE3)
T2 sequence (Q13133 200-447): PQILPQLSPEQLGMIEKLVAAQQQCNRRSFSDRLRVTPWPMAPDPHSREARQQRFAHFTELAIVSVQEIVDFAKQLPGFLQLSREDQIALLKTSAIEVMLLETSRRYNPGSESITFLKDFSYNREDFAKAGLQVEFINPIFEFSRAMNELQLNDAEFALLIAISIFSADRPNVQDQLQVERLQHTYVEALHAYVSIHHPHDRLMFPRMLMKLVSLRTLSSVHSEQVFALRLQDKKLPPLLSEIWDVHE
T2 sequence (O75376 with tags, fused parts or gaps partner limits assumed): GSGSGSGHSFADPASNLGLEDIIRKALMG
As to the kind of experiment: SPR cofactor recruitment, LXRα LBD binding to immobilized NCOR1 corepressor peptide. Here is the method: (§1) The peptides carried an N-terminal biotin for surface immobilization on a Xantec NID200M Sensor Chip (NTA-derivatized carboxymethyldextran hydrogel, XanTec bioanalytics GmbH) preloaded with Ni^2+. […] LXRα and LXRβ LBD proteins were serially diluted in SPR running buffer (10 mM HEPES, 150 mM NaCl, and 0.05% Tween 20, pH 7.4) to a broad range of concentrations (0.02–10 µM) and equilibrated with tested compound (50 μM) prior to the sample injection over a modified biosensor surface. LXR-ligand complexes were injected in quick succession for 120 s over immobilized cofactor peptides and reference surfaces along with blank samples followed by 900 s of dissociation. The binding level at equilibrium was monitored for all samples, including the reference sample that contained DMSO at equal amount as tested compounds. All data were normalized to this reference sample in order to quantify the effects on peptide binding without bias by receptor instability. The surface was regenerated with 0.5% (w/v) SDS after each injection. Binding responses in the steady-state region of the sensorgrams were plotted against LXR LBD concentration to determine the overall equilibrium-binding affinity by fitting the data to nonlinear regression (Prism 8; GraphPad).

Another data set concerns the target T3, LXRβ/SRC1 (Homo sapiens, UniProt P55055).
T3 construct: human his-tagged LXRβ LBD (216-461); His tag; made in house; host or cells: Escherichia coli BL21(DE3)
T3 sequence (P55055 215-460 limits assumed): T1 sequence (P55055 215-460 limits assumed)
T3 sequence (Q15788 with tags, fused parts or gaps partner limits assumed): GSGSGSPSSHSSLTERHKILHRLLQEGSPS
As to the kind of experiment: SPR cofactor recruitment, LXRβ LBD binding to immobilized SRC1 coactivator peptide. To be noted: LXRβ LBD 0.02–10 µM equilibrated with compound (50 μM), immobilized SRC1 peptide; read-out: LXRβ/SRC1 Kd. As for the experimental part: as §1

The next data set deals with T4, LXRβ/NCOR1 (Homo sapiens, UniProt P55055).
T4 construct: human his-tagged LXRβ LBD (216-461); His tag; made in house; host or cells: Escherichia coli BL21(DE3)
T4 sequence (P55055 215-460 limits assumed): T1 sequence (P55055 215-460 limits assumed)
As to the kind of experiment: SPR cofactor recruitment, LXRβ LBD binding to immobilized NCOR1 corepressor peptide. As for the experimental part:
as §1

For the compound `CN(C)C(=O)c1cnc(N2CC[C@@H](CNC3=C(c4ccccc4)S(=O)(=O)N(C(C)(C)C)C3=O)C2)c(Cl)c1` [AZ5], the systemic exposure entry in data set [1] is on record as “too low”. Take `CC(C)(C)N1C(=O)C(Cc2ccccc2)=C(NC2CCN(c3ncc(CC(=O)O)cc3Cl)CC2)C1=O` [AZ7]: on LXRβ LBD, the LXRβ binding selectivity entry is “more than tenfold”. For `O=C(O)Cc1cccc(OCCCN(Cc2cccc(C(F)(F)F)c2Cl)CC(c2ccccc2)c2ccccc2)c1` [GW3965, reference compound], the “increase of plasma triglyceride levels” value in the data set on plasma triglycerides was 70%. Turning to `CC(C)(O)c1cn(-c2ccc(-c3cc(F)c(CO)c(S(C)(=O)=O)c3)cc2F)c(C(C)(C)c2c(Cl)cccc2Cl)n1` [BMS-852927], the “effect on the LXRα/NCOR1 interaction” value on LXRα/NCOR1 is given as “enhanced the interaction”. For the same compound, on LXRβ/SRC1, the Kd stood at 19.8 µM. Moreover, the “effect on the LXRβ/NCOR1 interaction” value on LXRβ/NCOR1 is “enhanced the interaction”.
